This is an account of results in patent US10562912B2 (C&C Research Laboratories, priority 2013, dated 2020).

Format in all cases: cell-based
The target in one assay is T1, STAT3 (Homo sapiens, UniProt P40763).
T1 construct: plasmid pSTAT3-TA-luc), which contains a stably operating STAT3 promoter; endogenous in cells
The assay is described as follows: STAT3 reporter gene assay (luciferase), LNCaP stable cell line (pSTAT3-TA-luc), IL-6 stimulation. The method, boiled down:
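Cytotoxicity was run on a duplicate plate with CellTiter-Glo, while the other plate gave luciferase read-outs from lysed LNCaP pSTAT3-TA-luc reporter cells. Cells were treated with graded compound concentrations plus IL-6 (10 ng/mL final) for 24–48 h in 3% DCC-FBS medium. Unstimulated and stimulated wells served as negative and positive controls.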
For orientation: Reporter assays use an easily measured gene product as a stand-in for the process of interest.

In another assay the test system is LNCaP. The assay is described as follows: Cell growth inhibition assay, prostate cancer cell line LNCaP (medium with 10 ng/mL IL-6). As to conditions: Homo sapiens, medium supplemented with 10 ng/mL of IL-6, 10,000 cells/well.
For a further assay, the system named is DU-145. The assay is described as follows: Cell growth inhibition assay, prostate cancer cell line DU-145. The following applies: Homo sapiens, DU-145 prostate cancer cell line. The method, boiled down:
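Cancer cells, counted and seeded at 3,000 (DU-145, HCT116) or 5,000 (SW626) cells/well, received graded compound concentrations. Plates incubated 72–96 h at 37° C. with 5% CO2 were then assayed with CellTiter-Glo.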

In another assay the test system is HEL92.1.7. The assay is described as follows: Cell growth inhibition assay, blood cancer cell line HEL92.1.7. The following applies: Homo sapiens, HEL 92.1.7, HEL92.1.7 blood cancer cell line. The method, boiled down:
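Cells were seeded at 3,000/well (HCT116, DU-145) or 5,000/well (SW626 and the others) and exposed to serial compound dilutions for 72 to 96 h at 37 °C under 5% CO2. Viability was read as CellTiter-Glo luminescence against 0.1% DMSO and cell-free wells.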

T1 sequence (P40763 whole entry): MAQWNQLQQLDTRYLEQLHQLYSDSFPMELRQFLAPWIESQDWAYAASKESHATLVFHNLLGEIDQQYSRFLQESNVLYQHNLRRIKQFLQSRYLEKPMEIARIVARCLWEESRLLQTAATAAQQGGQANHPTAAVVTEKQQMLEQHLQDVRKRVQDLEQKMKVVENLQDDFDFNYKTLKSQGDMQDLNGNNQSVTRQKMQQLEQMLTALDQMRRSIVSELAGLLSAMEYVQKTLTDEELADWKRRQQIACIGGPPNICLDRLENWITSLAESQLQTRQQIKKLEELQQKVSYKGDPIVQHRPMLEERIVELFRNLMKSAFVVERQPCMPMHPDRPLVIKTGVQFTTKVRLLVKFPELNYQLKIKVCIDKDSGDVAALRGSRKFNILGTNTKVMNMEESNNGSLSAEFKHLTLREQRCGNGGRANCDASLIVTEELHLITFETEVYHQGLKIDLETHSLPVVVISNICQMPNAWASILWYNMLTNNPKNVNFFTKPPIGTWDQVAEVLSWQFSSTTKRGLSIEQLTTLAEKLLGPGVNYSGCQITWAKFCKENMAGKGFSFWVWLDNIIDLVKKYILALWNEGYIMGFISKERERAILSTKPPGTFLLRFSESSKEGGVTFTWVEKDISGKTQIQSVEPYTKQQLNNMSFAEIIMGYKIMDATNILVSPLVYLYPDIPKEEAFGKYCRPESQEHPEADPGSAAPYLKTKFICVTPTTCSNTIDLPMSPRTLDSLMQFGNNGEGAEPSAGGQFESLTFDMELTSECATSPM

As usually defined, the IC50 is the concentration that inhibits the measured activity by half. With `COc1ccc(C(C)(C)c2cc(Cl)cc(NC(=O)c3cc4cc(NS(C)(=O)=O)ccc4s3)c2)c(OC)c1` [Example 154, N-(3-chloro-5-(2-(2,4-dimethoxyphenyl)propan-2-yl)phenyl)-5-(methylsulfonamido)benzo[b]thiophene-2-carboxamide], the IC50 came out at 0.14 µM against STAT3, 0.11 µM in the assay with LNCaP, 0.17 µM with DU-145 and 0.34 µM in the assay with HEL92.1.7.

As for `COc1ccc(C(C)(C)c2cc(Cl)cc(NC(=O)c3cc4cc(NS(C)(=O)=O)ccc4s3)c2)cc1` [Example 155, N-(3-chloro-5-(2-(4-methoxyphenyl)propan-2-yl)phenyl)-5-(methylsulfonamido)benzo[b]thiophene-2-carboxamide], the IC50 stood at 0.078 µM against STAT3, 0.034 µM in the assay with LNCaP, 0.061 µM with DU-145 and 0.13 µM in the assay on HEL92.1.7.

In the case of `COc1ccc(OC)c(C(C)(C)c2cc(Cl)cc(NC(=O)c3cc4cc(NS(C)(=O)=O)ccc4s3)c2)c1` [Example 156, N-(3-chloro-5-(2-(2,5-dimethoxyphenyl)propan-2-yl)phenyl)-5-(methylsulfonamido)benzo[b]thiophene-2-carboxamide], the IC50 against STAT3 is 0.23 µM; in the assay on LNCaP, 0.14 µM; in the assay on DU-145, 0.25 µM; in the assay on HEL92.1.7 it was 0.74 µM.

As for `CSc1ccc(C(C)(C)c2cc(Cl)cc(NC(=O)c3cc4cc(NS(C)(=O)=O)ccc4s3)c2)cc1` [Example 157, N-(3-chloro-5-(2-(4-(methylthio)phenyl)propan-2-yl)phenyl)-5-(methylsulfonamido)benzo[b]thiophene-2-carboxamide], the IC50 on STAT3 worked out at 0.063 µM; with LNCaP it was 0.079 µM; in the assay with DU-145, 0.06 µM; in the assay with HEL92.1.7, 0.23 µM.

Regarding `CC(C)(c1ccc(Cl)cc1)c1cc(Cl)cc(NC(=O)c2cc3cc(NS(C)(=O)=O)ccc3s2)c1` [Example 158, N-(3-chloro-5-(2-(4-chlorophenyl)propan-2-yl)phenyl)-5-(methylsulfonamido)benzo[b]thiophene-2-carboxamide], the IC50 on STAT3 came out at 0.12 µM; with LNCaP, 0.056 µM; with DU-145 it was 0.048 µM; with HEL92.1.7, 0.22 µM.

In the case of `CC(C)(c1cc(Cl)cc(NC(=O)c2cc3cc(NS(C)(=O)=O)ccc3s2)c1)c1ccc(F)c(F)c1` [Example 162, N-(3-chloro-5-(2-(3,4-difluorophenyl)propan-2-yl)phenyl)-5-(methylsulfonamido)benzo[b]thiophene-2-carboxamide], the IC50 is 0.069 µM against STAT3, 0.064 µM in the assay on LNCaP, 0.052 µM in the assay on DU-145 and 0.2 µM in the assay with HEL92.1.7.

For `CN(c1cc2cc(C(=O)Nc3cc(Cl)cc(C(C)(C)c4ccc(Cl)cc4)c3)sc2cc1F)S(C)(=O)=O` [Example 163, N-(3-chloro-5-(2-(4-chlorophenyl)propan-2-yl)phenyl)-6-fluoro-5-(N-methylmethylsulfonamido)benzo[b]thiophene-2-carboxamide], the IC50 came out at 0.011 µM at STAT3, 0.013 µM in the assay with LNCaP, 0.016 µM with DU-145 and 0.019 µM in the assay with HEL92.1.7.

`CC(C)(c1cc(Cl)cc(NC(=O)c2cc3cc(NS(C)(=O)=O)ccc3s2)c1)N1CCCCC1` [Example 164, N-(3-chloro-5-(2-(piperidin-1-yl)propan-2-yl)phenyl)-5-(methylsulfonamido)benzo[b]thiophene-2-carboxamide]: the IC50 at STAT3 is 0.72 µM; in the assay on LNCaP, 0.9 µM; with DU-145, greater than 1.1 µM; with HEL92.1.7 it was greater than 1.1 µM.

`CC(C)(c1cc(Cl)cc(NC(=O)c2cc3cc(NS(C)(=O)=O)ccc3s2)c1)c1ccc[nH]1` [Example 166, N-(3-(2-(1H-pyrrol-2-yl)propan-2-yl)-5-chlorophenyl)-5-(methylsulfonamido)benzo[b]thiophene-2-carboxamide]: the IC50 is 0.31 µM at STAT3, 1 µM in the assay on LNCaP, 0.41 µM in the assay with DU-145 and greater than 1.1 µM with HEL92.1.7.
